Experimental data taken from patent US20250296955A1, “PIN1 TARGETING COMPOUNDS AND DEGRADERS AND METHODS THEREOF” (The Regents of the University of California, priority 2024, published 2025).
Where two headings read alike, the source gives them in different places. Values belong to the compound of their own block, whether it stands above or below them. *1 amine or outer side, *2 acyl side, *3 side chain or, on linkers, in order; H or OH if unused. Where a SMILES comes first, the peptide text is derived from it. [ ]: non-standard residue; d: D form. The star is where a group is joined. ξ: configuration not given here. Trp(5-OMe) = COc1ccc2[nH]cc(C[C@H](N)C(=O)O)c2c1; Trp(6-Cl) = N[C@@H](Cc1c[nH]c2cc(Cl)ccc12)C(=O)O; X1 = CC(OP(=O)(O)O)[C@@H](N[*:1])C(=O)[*:2]; 2Nal = N[C@@H](Cc1ccc2ccccc2c1)C(=O)O; Pip = O=C(O)[C@@H]1CCCCN1; ξPip = O=C(O)C1CCCCN1; ClAc = O=C(CCl)*

Columns and labels:
Pin1 [1] = target: T1, Pin1 (Homo sapiens, UniProt Q13526); settings: Pinch B J, et al. (2020); read-out: IC50 value as reported by a fluorescence polarization assay; cited from earlier work
Pin1 [2] = target: T1, Pin1; assay: Denaturation thermal shift assay (SYPRO Orange); assay type: binding; set-up: human Pin1 (residues 1-163); made in house; host or cells: E. coli BL21 (DE3) gold pLysS; settings: for ΔTm (° C.) 30 min: Table 1, Protein:compound 1:2, 20X Sypro Orange, 50 mM phosphate pH 7.5, 150 mM NaCl, 3% DMSO; for ΔTm: running text and figure legends
From the text: (§1) Important to the success of structure activity relations studies, robust biochemical, biophysical, and cell-based assays were implemented that enabled rapid and iterative evaluations of test Pin1 targeting agents. First, the DELFIA (Dissociation-enhanced lanthanide fluorescent immunoassay) assay platform was used to derive a robust heterogeneous assay to monitor the ability of test agents to displace the binding between Pin1 and the D-Peptide (Table 1), which was obtained in a biotinylated form (FIG. 10). […] Second, for an orthogonal biophysical assay denaturation thermal shift measurements were used. Pin1 was incubated with vehicle control (buffer with 1% DMSO), or test agents at protein: ligand ratio of 1:2 (20 μM protein-40 μM compound) for 10 min at 10° C. in the presence of the fluorescent dye SYPRO Orange. The samples were gradually exposed to increasing temperature (linear gradient from 10° C. to 95° C.), causing the protein to unfold. This unfolding allowed the fluorescent dye to bind to the protein's exposed hydrophobic residues, resulting in an increase in fluorescence. The thermal shift assay measures the protein's melting temperature (Tm), which is the temperature at which the protein denatures by 50%. Ligands can affect a protein target to thermal denaturation, which could manifest in a positive or negative shift in the protein denaturation temperature (ΔTm) (Bai N, Roder H, Dickson A, & Karanicolas J (2019) Scientific Reports 9; and Kranz J K & Schalk-Hihi C (2011) Fragment-Based Drug Design: Tools, Practical Approaches, and Examples 493:277-298). Using these two assays, a series of commercially available Pin1 inhibitors were profiled (Table 1). The non-covalent agent D-peptide resulted only moderately active, with an IC50 value of ˜3 μM that closely resembled the dissociation constant for this agent determined via isothermal titration calorimetry, and the ˜ 3 μM IC50 value as reported by a fluorescence polarization assay (Pinch B J, et al. (2020) Nat Chem Biol 16(9):979-987). […] (Table 1) was observed.
Thermal shift assays for Pin1 alone and in the presence of the inhibitors were obtained with a BioRad CFX Connect Real-Time PCR Detection System. Each data point was collected in quadruplicate. Each sample was prepared using buffer 50 mM Phosphate pH 7.5, 150 mM NaCl, 1% DMSO. Protein: ligand ratio used was 1:2 (20 μM protein-40 μM compound), and SYPRO Orange was used. Incubation of the Pin1 protein with the compounds was performed at 10° C. for 10 min. Samples were then heated from 10 to 95° C. with heating increments of 0.05° C., over 30 min. Fluorescence intensity was measured within the excitation/emission ranges 470-505/540-700 nm.

Pin1 [3] = target: T1, Pin1; assay: DELFIA displacement assay (displacement of biotinylated D-peptide from 6His-Pin1); assay type: binding; set-up: human Pin1 (residues 1-163); made in house; host or cells: E. coli BL21 (DE3) gold pLysS
From the text: as §1
For the reported covalent agents such as sulfopin (Dubiella C, et al. (2021) Nat Chem Biol 17(9):954-963), BJP-07-017-3 (Pinch B J, et al. (2020) Nat Chem Biol 16(9):979-987), or KPT-6566 (Campaner E, et al. (2017) Nat Commun 8:15772), a 6-h pre-incubation period was included in the DELFIA assay to allow the covalent reaction to take place. For those agents, IC50 values that fell in the low nanomolar range were observed, consistent with what was reported previously for those compounds. […] To make those determinations in a broader panel of cancer cell lines three pancreatic cancer cell lines, BxPC3, MIA-PaCa-2, and PANC-1, the breast cancer cell line MDA-MB-231, the prostate cancer cell line PC3, and the non-small cell lung cancer cell line A549 were chosen. Each cell line represents various states of KRAS activating mutations (for example BxPC3 is wt-KRAS, while MIAPaCa2 carries the KRAS(G12C) mutation, and the PANC-1 the KRAS(G12D) (Miquel M, Zhang S, & Pilarsky C (2021) Front Cell Dev Biol 9:748631), A549 is KRAS(G12S) (Wang H, et al. (2019) EBioMedicine 49:106-117), MDA-MB-231 is KRAS(G13D) (Kim R K, et al. (2015) Exp Mol Med 47(1):e137), PC3 is wt-KRAS (Bouali S, et al. (2009) Oncol Rep 21(3):731-735). Pin1 protein levels in these cell lines were established using a specific Pin1 antibody in western blot analyses (FIG. 1A). The data confirmed that all these selected human cancer cell lines expressed a significant level of Pin1 (FIG. 1A).
Each well of 96-well streptavidin-coated plates (PerkinElmer) was incubated with 100 μL of 200 nM biotinylated D-peptide for 2 h and washed 3 times with a wash solution (PerkinElmer). Subsequently, a mixture containing Pin1, and a serial dilution of the test compounds were pre-incubated for 6 h. Eu-N1-labeled anti-6x-His antibody (PerkinElmer, 1:2000) was then added to this mixture and further incubated in the biotinylated D-peptide-bound plates for another 2 h. […]

Pin1 [4] = target: T1, Pin1; assay: Pin1 degradation in BxPC3 cells (western blot); assay type: cell-based; settings: Bx-PC3 cell line, 25 μM, 24 h (FIG. 1B)
From the text: Next, each cell line was exposed to a relatively high concentration of each of the Pin1 inhibitors from Table 1 and measured their ability to cause Pin1 degradation in the Bx-PC3 cell line under the experimental conditions reported in FIG. 1B. […] It was hypothesized that this observed degradation in the series correlated with the increased sensitivity of Pin1 to thermal degradation induced by BJP-07-017-3 in vitro (Table 1).
(§2) BxPC3, MIA PaCa-2, PANC-1, MDA-MB-231, and PC3 were obtained from the American Type Culture Collection (ATCC) and A549 NucLight Red cells were purchased from Essen Bioscience. BxPC3 and PC3 cells were cultured in RPMI (Corning) while PANC-1 cells were cultured in DMEM (Corning). MIA PaCa-2 cells were also cultured in DMEM, but with the addition of 2.5% horse serum. A549 NucLight cells were cultured in a Ham's F-12 nutriend mixture with GlutaMAX-1 (Gibco). All of the culture media were supplemented with 10% FBS. […]
(§3) At the end of the treatments, cells were lysed with a lysis buffer containing 20 mM Tris, pH 7.4, 120 mM NaCl, 1% Triton X-100, 0.5% sodium deoxycholate, 0.1% SDS, 1% IGEPAL, 5 mM EDTA, protease inhibitor cocktail and PhosSTOP (Sigma-Aldrich). […] Protein concentrations were determined using the Pierce BCA Protein Assay Kit (ThermoFisher Scientific) according to the manufacturer's instruction. […]

Pin1 [5] = target: T1, Pin1; assay: Pin1 degradation in MIA PaCa-2 cells (western blot); assay type: cell-based; settings: after 24 h (FIG. 14C)
Method: BxPC3, MIA PaCa-2, PANC-1, MDA-MB-231, and PC3 were obtained from the American Type Culture Collection (ATCC) and A549 NucLight Red cells were purchased from Essen Bioscience. BxPC3 and PC3 cells were cultured in RPMI (Corning) while PANC-1 cells were cultured in DMEM (Corning). MIA PaCa-2 cells were also cultured in DMEM, but with the addition of 2.5% horse serum. A549 NucLight cells were cultured in a Ham's F-12 nutriend mixture with GlutaMAX-1 (Gibco). All of the culture media were supplemented with 10% FBS. MDA-MB-231 cells were nuclear-labeled red (MDA-MB-231 NucLight Red) with the IncuCyte NucLight lentivirus reagent (Essen Bioscience) according to the manufacturer's protocol and were cultured in DMEM supplemented with 10% FBS and 1 μg/mL puromycin. Cells were all maintained at 37° C. in a humidified incubator with 5% CO2.
At the end of the treatments, cells were lysed with a lysis buffer containing 20 mM Tris, pH 7.4, 120 mM NaCl, 1% Triton X-100, 0.5% sodium deoxycholate, 0.1% SDS, 1% IGEPAL, 5 mM EDTA, protease inhibitor cocktail and PhosSTOP (Sigma-Aldrich). Lysates were then centrifuged at 16,000×g for 20 min at 4° C. and supernatants were collected. Protein concentrations were determined using the Pierce BCA Protein Assay Kit (ThermoFisher Scientific) according to the manufacturer's instruction. […]

Pin1 [6] = target: T1, Pin1; assay: Pin1 degradation in a panel of human cancer cell lines (western blot); assay type: cell-based; settings: all cell lines, exposed to 5 μM, 24 h (FIG. 4); read-out: Dmax (the maximal level of degradation)
Method: In these studies, it was evident that both agents were very effective in degrading Pin1 in all tested human cancer cell lines with DC50 values (the concentration at which 50% degradation was observed)˜500 nM and Dmax (the maximal level of degradation) close to 100% with all cell lines when exposed to 5 μM of either agent (FIG. 4).
as §2, §3

[7] = Table 1, 6-h pre-incubation followed by 2-h incubation, ± SD from duplicates

T1 sequence (Q13526 whole entry, the tested form may be a part): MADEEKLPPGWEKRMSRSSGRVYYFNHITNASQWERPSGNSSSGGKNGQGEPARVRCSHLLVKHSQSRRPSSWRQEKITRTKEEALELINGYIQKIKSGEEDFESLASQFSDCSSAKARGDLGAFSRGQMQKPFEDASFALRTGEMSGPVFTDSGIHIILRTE

Structure (SMILES): CC(=O)N[C@@H](Cc1ccccc1)C(=O)N[C@@H](C(=O)N1CCCCC1C(=O)N[C@@H](Cc1ccc2ccccc2c1)C(=O)N[C@@H](CCC(N)=O)C(N)=O)C(C)OP(=O)(O)O (stereo partly shown) [158A1, reference compound] (Ac-F[X1][ξPip][2Nal]Q-NH2)
IC50 (Pin1 [1]): ~3000 nM
ΔTm (° C.) 30 min (Pin1 [2]; ± SE of four replicates): 3.40 ± 0.16 °C
ΔTm (Pin1 [2]): 3.4 °C
IC50 (Pin1 [3]): ~3000 nM
IC50 (Pin1 [3]; [7]): 2910 ± 103 nM

Structure (SMILES): CN(C(=O)CCl)[C@@H](Cc1ccccc1)C(=O)N1CCCC[C@H]1C(=O)N[C@@H](CC1CNc2ccccc21)C(=O)N[C@@H](CCCNC(N)=O)C(N)=O (stereo partly shown) [158A12, reference compound]
Pin1 degradation in cell (Pin1 [4]): significant Pin1 degradation
ΔTm (° C.) 30 min (Pin1 [2]; ± SE of four replicates): −6.40 ± 0.04 °C
ΔTm (Pin1 [2]): −6.4 °C
IC50 (Pin1 [3]; [7]): 9 ± 1 nM

Structure (SMILES): COc1ccc2[nH]cc(C[C@H](NC(=O)[C@@H]3CCCCN3C(=O)[C@H](Cc3ccccc3)NC(=O)CCl)C(N)=O)c2c1 [158F10] (ClAc-Phe-[Pip]-[Trp(5-OMe)]-NH2)
ΔTm (° C.) (Pin1 [2]; Table 3, single transition, ± SE of four replicates): −10.16 ± 0.07 °C
IC50 (Pin1 [3]; Table 3, ± SD from duplicates): 126 ± 5 nM
degradation of Pin1 (western blot) (Pin1 [5]): degradation of Pin1

Dmax (Pin1 [6]): ~100%
ΔTm (Pin1 [2]): −8.41 °C
Structure (SMILES): NC(=O)[C@H](Cc1c[nH]c2ccccc12)NC(=O)[C@@H]1CCCCN1C(=O)[C@H](Cc1c[nH]c2cc(Cl)ccc12)NC(=O)CCl [158H9] (ClAc-[Trp(6-Cl)]-[Pip]-Trp-NH2)

Structure (SMILES): NC(=O)[C@H](Cc1c[nH]c2ccccc12)NC(=O)[C@@H]1C[C@H]2CCCC[C@@H]2N1C(=O)[C@H](Cc1c[nH]c2ccccc12)NC(=O)CCl [164A1]
share of first denaturation transition (Pin1 [2]; Table 4, percentage in brackets after first ΔTm): 80%
share of second denaturation transition (Pin1 [2]; Table 4, percentage in brackets after second ΔTm): 20%
ΔTm (° C.), first of two denaturation transitions (Pin1 [2]; Table 4, two transitions observed, likely incomplete complex formation): −0.38 ± 0.15 °C
IC50 (Pin1 [3]; Table 5): 1830 ± 394 nM

Structure (SMILES): O=C(CCl)N[C@@H](Cc1cccc(O)c1)C(=O)N1CCCC[C@H]1C(=O)NCCc1c[nH]c2cc(Cl)cc(Cl)c12 [164A2]
share of first thermal shift peak (Pin1 [2]; Table 3, percentage in brackets after first ΔTm): 10%
share of second thermal shift peak (Pin1 [2]; Table 3, percentage in brackets after second ΔTm): 90%
ΔTm (° C.), first of two peaks (Pin1 [2]; Table 3, two peaks observed, likely incomplete complex formation): −0.25 ± 0.31 °C
IC50 (Pin1 [3]; Table 3, ± SD from duplicates): 289 ± 23 nM
